Laboratory results reported in PubChem BioAssay (NCI).
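Test compounds were applied to cells in 96-well plates for 48 hours at 5 doses. TGI marks complete inhibition of growth.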

Key:
Assay in all cases: NCI tumour cell line growth inhibition, 48 h
HOP-18 NSCLC = system: HOP-18 NSCLC
P388/ADR leukemia = system: P388/ADR leukemia
SN12K1 renal = system: SN12K1 renal

| SMILES | TGI (HOP-18 NSCLC) [µM] | TGI (P388/ADR leukemia) [µM] | TGI (SN12K1 renal) [µM] |
| --- | --- | --- | --- |
| O=C1OCc2cccc3c2-c2c1cccc2C(=O)OC3 | > 100 |  |  |
| CCOC(=O)C1=C(C)N(NC(N)=O)C2(O)CCCC(=O)C12C (stereo not given) | > 100 |  |  |
| CCCCS(=O)(=O)Nc1ccc(Nc2c3ccccc3nc3ccccc23)c(OC)c1 | 19.8 | 2.88 | 3.55 |
